Results on four molecules are retold here after patent US6814969B2, “Immunologically significant herpes simplex virus antigens and methods for using same” (University of Washington, priority 2001, dated 2004).

In assay [1] the test system is CD8 CTL clone 5491.2000.48. The assay is described as follows: 51Cr release CTL assay, CD8 clone 5491.2000.48. The format is cell-based, human. The settings on record: autologous targets infected with wild-type HSV-2 in the presence of 5 μg/ml actinomycin D, E:T 20:1.
The subject of assay [2] is CD8 CTL clone 1874.1991.22. The assay is described as follows: 51Cr release CTL assay, CD8 clone 1874.1991.22. The format is cell-based, human. The settings on record: autologous targets infected with wild-type HSV-2 in the presence of 5 μg/ml actinomycin D, E:T 20:1.
Assay [3] relates to CD8 CTL clone 5101.1999.23. The assay is described as follows: 51Cr release CTL assay, CD8 clone 5101.1999.23. Format: cell-based, human. The settings on record: autologous targets infected with wild-type HSV-2 in the presence of 5 μg/ml actinomycin D, E:T 20:1.
In another assay the test system is CD4+ T cell clone. The assay is described as follows: Reactivity with a CD4+ T cell clone (HLA DRBI*1501). The settings on record: in association with HLA class II molecule DRBI*1501. Format: cell-based, human. From the text:
This epitope is recognized in association with the HLA class II molecule DRBI*1501, which is fairly prevalent in most human populations.

The test system of assay [4] is TCC BM.17. As to the kind of experiment: Cytolysis assay (4-hour 51Cr release), CD4 TCC BM.17. The settings on record: autologous EBV-LCL targets, HSV-2 infected or 1 μM peptide, E:T 20:1. Format: cell-based, human. On the procedure: (§1) Cytolysis assays were performed in triplicate using 4-hour [^51]Cr release as described (D. M. Koelle et al., 1993, J. Clin. Invest., 91:961-968). […] W. Kwok et al., 1996,J. Exp. Med., 183:1253-1258). The effector to target ratio was 20:1. Spontaneous release was less than 28%.

For assay [5], the system named is TCC SB.17. As to the kind of experiment: T-cell proliferation, TCC SB.17. The format is cell-based, human. The settings on record: VP16 1-492 at 1 μg/ml, β-gal-VP16 180-492 at 1:1,000, peptides at 1 μM. On the procedure: (§2) Triplicate proliferation assay wells contained 10^4 cloned T-cells, 10^5 irradiated (3300 rad) PBMC or 2.5×10^4 irradiated (8000 rad) EBV-LCL as antigen presenting cells (APC), and antigen in 200 μl T-cell media (D. M. Koelle et al., 1997, Human. Immunol., 53:195-205) in 96-well U-bottom plates. When heat-killed bacteria were used as antigen, the equivalent of 10^5 cfu/well (prior to inactivation) was added and gentamicin (20 μg/ml) was included. After 72 hours, 1 μCi/well ^[3]H thymidine was added for 18 hours, cells were harvested, and incorporation of thymidine evaluated by liquid scintillation counting. Standard deviations were less than 10% of the mean values. Results are reported as mean cpm or as delta cpm=mean cpm for experimental antigen minus mean cpm for control antigen. Control antigen was mock-infected cell lysate for whole viral antigens and pUEX2-derived β-galactosidase for recombinant protein preparations. […]
(§3) Three epitopes within VP16, all HSV-2 type-specific were previously identified (K. R. Jerome et al., 1998, J. Virol., 72:436-441), and proliferative responses to full-length VP16 in bulk cultures of genital HSV-2 lesion-infiltrating lymphocytes from four of seven (57%) patients were detected (D. M. Koelle et al., 1998, J. Clin. Invest., 101:1500-09). […]

Assay [6] deals with TCC SB.17. As to the kind of experiment: Cytolysis assay (4-hour 51Cr release), CD4 TCC SB.17. The settings on record: autologous EBV-LCL targets, HSV-2 infected or 1 μM peptide, E:T 20:1. The format is cell-based, human. As for the experimental part: as §1
For assay [7], the system named is TCC BM.17. The assay is described as follows: T-cell proliferation, TCC BM.17. Format: cell-based, human. The settings on record: VP16 1-492 at 1 μg/ml, β-gal-VP16 180-492 at 1:1,000, peptides at 1 μM. As for the experimental part:
as §2, §3

The test system of another assay is B1 cell line. The assay is described as follows: Proliferation of short-term HSV-specific B1 cell lines from seven HSV-2 infected adults. Format: cell-based, human. The settings on record: seven HSV-2 infected immunocompetent adults; positive = stimulation index >= 4.0. As for the experimental part:
For each subject, PBMC were isolated and plated at 2×10^6 cells/well in 2 mls of T-cell medium in 24-well plates and stimulated in vitro with a 1:500 dilution of UV-inactivated HSV-2 strain 333 for five days. At that time, 40 units/ml recombinant human IL-2 was added for an additional five to six days, giving rise to a short-term, HSV-specific cell line termed a B1 cell line.
Reactivity to individual HSV-2 proteins was assessed as follows. Proliferation assays were set up on 96-well round bottom microtiter plates, and each condition was performed in triplicate. To each well, 1×10^5 autologous irradiated (3300 rad gamma) PBMC were added as antigen presenting cells. To each well, 1×10^4 B1 cells were added. The following control substances were added: media, UV-treated mock virus preparation diluted 1:500, UV-treated HSV-2 strain 333 diluted 1:500, glycoproteins B or D or VP16 protein of HSV-2 (purified) at 4 micrograms per ml final concentration. The response to UV-treated HSV-2 was expected to be positive and served as a positive control for the viability and overall specificity of the cells. […]
Positive responses were scored if the stimulation index (mean cpm ^3H thymidine incorporation for test antigen/mean cpm ^3H thymidine incorporation for relevant control antigen) was greater than or equal to 4.0. […]

The test system of assay [8] is genital HSV-2 lesion-infiltrating lymphocytes. The settings on record: four of seven patients; Koelle et al., 1998; cited from earlier work.

Starred links: 1 amine or outer side, 2 acyl side, 3 side chain; linkers in the order of their positions; H or OH if unused. Positions of bridges follow the written chain, without caps; N, C: chain ends. Non-standard residues stand in square brackets, D forms with d. Residues, ends and D or L forms follow the SMILES beside them. Chains are numbered I, II in the order given. Actinocin(9to1) = Cc1c2oc3c(C)ccc(C(=O)[*:1])c3nc-2c(C(=O)[*:2])c(N)c1=O; NMeV = CN[C@H](C(=O)O)C(C)C; Sar = CNCC(=O)O

Turning to `Cc1c2oc3c(C)ccc(C(=O)N[C@@H]4C(=O)N[C@H](C(C)C)C(=O)N5CCC[C@H]5C(=O)N(C)CC(=O)N(C)[C@@H](C(C)C)C(=O)O[C@@H]4C)c3nc-2c(C(=O)N[C@@H]2C(=O)N[C@H](C(C)C)C(=O)N3CCC[C@H]3C(=O)N(C)CC(=O)N(C)[C@@H](C(C)C)C(=O)O[C@@H]2C)c(N)c1=O` [actinomycin D] (I: T[dV]P[Sar][NMeV] / II: T[dV]P[Sar][NMeV]; ester I:1-I:C, II:1-II:C; linker I:N-II:N via Actinocin(9to1)), the percent specific release in assay [1] came to 49.2%; in assay [2], 45.1%; in assay [3], 35.8%.

Regarding RLRELNHIREHLNLPLVRSA [VP16 288-307], the “reactivity with a CD4+ T cell clone” value in the assay on CD4+ T cell clone is listed as “reactivity”.

With “VP16 437-449: HSV-2 VP16 (UL48) peptide, amino acids 437-449 (ADALDDFDLEMLG; UniProt P68336 437-449, looked up, fragment)”, the percent specific release was 28.5% with TCC BM.17 [4] and 60.6% in the assay with TCC SB.17 [6]. Moreover, the “delta cpm [3H] thymidine incorporation compared to media” value with TCC SB.17 [5] is 36,442 cpm; in the assay with TCC BM.17 [7], 79,723 cpm.

B1: VP16 of HSV-2: VP16 protein of HSV-2 (purified) (protein)
chain: MDLLVDDLFADADGVSPPPPRPAGGPKNTPAAPPLYATGRLSQAQLMPSPPMPVPPAALFNRLLDDLGFSAGPALCTMLDTWNEDLFSGFPTNADMYRECKFLSTLPSDVIDWGDAHVPERSPIDIRAHGDVAFPTLPATRDELPSYYEAMAQFFRGELRAREESYRTVLANFCSALYRYLRASVRQLHRQAHMRGRNRDLREMLRTTIADRYYRETARLARVLFLHLYLFLSREILWAAYAEQMMRPDLFDGLCCDLESWRQLACLFQPLMFINGSLTVRGVPVEARRLRELNHIREHLNLPLVRSAAAEEPGAPLTTPPVLQGNQARSSGYFMLLIRAKLDSYSSVATSEGESVMREHAYSRGRTRNNYGSTIEGLLDLPDDDDAPAEAGLVAPRMSFLSAGQRPRRLSTTAPITDVSLGDELRLDGEEVDMTPADALDDFDLEMLGDVESPSPGMTHDPVSYGALDVDDFEFEQMFTDAMGIDDFGG
B1: in the assay with B1 cell line, the “% (subjects with positive response)” value is recorded as 0% and the “n (subjects with positive response)” value is reported as 0. In addition, the “patients with proliferative responses in bulk cultures of lesion-infiltrating lymphocytes” value in assay [8] is listed as 57%.
